Data on 1 compound can be found in PMC10892288, “Early Stage Preclinical Formulation Strategies to Alter the Pharmacokinetic Profile of Two Small Molecule Therapeutics” (Pharmaceuticals, 2024).

The structures appear in SMILES notation.

This data set is described as follows: Mouse IV infusion of G7883 by iPRECIO pump. The class given is in vivo, female C57BL-6 mice. An excerpt: This is often a concern for molecules in early drug discovery stages. Various formulation and delivery strategies have been devised to modify the systemic PK profiles of drug molecules, encompassing nanoparticles, microparticles, lipid and polymer conjugation, implanted infusion pump device technologies, and subcutaneous depots. Here, we examined two strategies aimed at maintaining the drug concentration at a designed target concentration for the maximum duration potentially needed for proof of concept studies. The initial approach involved using an implantable device, the iPRECIO pump that allows for a controlled and sustained infusion, as opposed to a typical bolus IV injection. The infusion pump strategies can be a promising tool to achieve the desired delivery profile of a compound, given the solubility requirements based on the intended target release and PK profile. […]
All plasma and cell media concentrations of G7883 and G6893 were determined using liquid chromatography–tandem mass spectrometry after protein precipitation with acetonitrile and injection of the supernatant onto the column (Waters ACQUITY UPLC BEH C18 1.7 μm, 2.1 × 50 mm for G7883 and G6893). […] The lower limit of quantitation of the assay was 5.1 ng/mL, and the dilution quality control concentration was set at 10 ng/mL with acceptance criteria for accuracy and precision of 25%.

Regarding `Cc1nccnc1-c1nn2c(=O)cc(-c3ccc(C4CCCCC4)cc3)[nH]c2c1C(=O)N1CC(CF)C1` [G7883, 5-(4-cyclohexylphenyl)-3-[3-(fluoromethyl)azetidine-1-carbonyl]-2-(3-methylpyrazin-2-yl)-4H-pyrazolo[1,5-a]pyrimidin-7-one], the “plasma concentration relative to target IC50” value (3.3 mg/mL in 20% DMSO, 80% PEG400, 1.54 mg/h.kg, over 176 h, mouse) was “plasma concentrations remained below the target IC50”. Moreover, the “body weight over time” value (20% DMSO, 80% PEG400, mouse) is reported as “prevention of body weight loss over time”.
